Assay [1] has as its system HeLa cells. In words: Cell growth assay (Alamar blue), HeLa. The class given is cell-based, human. The following applies: 3 days; for Effect on cell growth (relative cell number): HeLa; for IC50: Homo sapiens, 72 h, HeLa cells, Alamar blue. How it is done:
HeLa, LM8, and 3T3-L1 cells were cultured for 3 days at 2.5–5×10^3 cells/well in 12-well plates with each well filled with 1 ml of DMEM-FBS (for HeLa and 3T3-L1) or MEM-α-FBS (for LM8) together with drugs at various concentrations. Then, the incubation media were discarded and the cells were washed with 1 ml of PBS(–) (20 mM phosphate buffered saline, pH 7.4) and incubated with 1 ml of fresh DMEM-FBS (HeLa and 3T3-L1) or MEM-α-FBS (LM8) containing 5% (v/v) of Alamar blue (a cell number indicator; Wako Pure Chemical Industries, Osaka, Japan) until the color changed. […] Relative cell numbers were determined for each concentration for each drug and the IC50 was determined from the dose-response curves.

The next assay relates to LM8 cells. In words: Cell growth assay (Alamar blue), LM8. The following applies: for IC50: Mus musculus, 72 h, LM8 cells, 3 days, Alamar blue; for Effect on cell growth in LM8 cells: BODIPY-DIF-3 5–20 µM, CCCP 2–10 µM, 4 days. The class given is cell-based, mouse. Here is the method: HeLa, LM8, and 3T3-L1 cells were cultured for 3 days at 2.5–5×10^3 cells/well in 12-well plates with each well filled with 1 ml of DMEM-FBS (for HeLa and 3T3-L1) or MEM-α-FBS (for LM8) together with drugs at various concentrations. Then, the incubation media were discarded and the cells were washed with 1 ml of PBS(–) (20 mM phosphate buffered saline, pH 7.4) and incubated with 1 ml of fresh DMEM-FBS (HeLa and 3T3-L1) or MEM-α-FBS (LM8) containing 5% (v/v) of Alamar blue (a cell number indicator; Wako Pure Chemical Industries, Osaka, Japan) until the color changed. The relative cell number was assessed by measuring absorbance at 570 nm (reference at 595 nm) as described previously, [14]; DIF-related compounds and BODIPY-conjugated compounds hardly disturbed the cell number assessment with Alamar blue (data not shown), probably because the additive compounds were washed out when cell number was assessed. For determination of the 50% inhibitory concentration (IC50) of each drug, the cells were cultured for 3 days in the presence of each drug at various concentrations. Relative cell numbers were determined for each concentration for each drug and the IC50 was determined from the dose-response curves.
Supplementary file pone.0072118.s001.tif: Figure S1 Effects of BODIPY-DIF-3 and CCCP on cell growth, and cellular localization of BODIPY-DIF-3 in LM8 cells. (A) Cells were incubated for 4 days with 5–20 µM of BODIPY-DIF-3 (closed circles) or 2–10 µM of CCCP (closed triangles), and relative cell number was assessed by the use of Alamar blue. Data are the mean values and SD (bars) of three independent experiments. (B) Cells were incubated for 0.5 h or 3 days with 20 µM of BODIPY-DIF-3, washed free of the additive, and observed microscopically. (C) Cells were incubated for 0.5 h with BODIPY-DIF-3 (20 µM), Hoechst (0.1 µg/ml), and MitoTracker (0.1 µM), washed free of the additives, and observed by using a high-magnification fluorescence microscope. (D) Cells were incubated for 3 days with BODIPY-DIF-3 (20 µM) and then for 0.5 h with Hoechst (0.1 µg/ml) and MitoTracker (0.1 µM). Cells were washed free of the additives and observed by using a high-magnification fluorescence microscope. (TIF) Click here for additional data file.

The test system of assay [2] is HeLa cells. In words: Electron microscopy of organelle morphology. Format: cell-based, human. The note with it: 3 days, Bu-DIF-3 5 µM, BODIPY-DIF-3 20 µM. How it is done: HeLa cells were incubated for 3 days with 2 ml DMEM-FBS containing 0.2% DMSO and 5 µM Bu-DIF-3 or 20 µM BODIPY-DIF-3 in 35-mm plastic dishes at 2×10^4 cells/dish. The cells were fixed at 4°C for 30 min with PB (0.1 M phosphate buffer, pH 7.4) containing 2% paraformaldehyde and 2% glutaraldehyde and then with PB containing 2% glutaraldehyde at 4°C overnight. The cell samples were rinsed 3 times with PB for 30 min each, followed by post fixation with 2% OsO4 in PB at 4°C for 1 h. The samples were dehydrated through a graded ethanol (EtOH) series starting with 50% and 70% EtOH for 5 min each at 4°C, then 90% EtOH for 5 min at room temperature, followed by three changes of 100% EtOH for 5 min each at room temperature. The samples were then transferred to a resin (Quetol-812; Nisshin EM Co., Tokyo, Japan) and polymerized at 60°C for 48 h. Ultra-thin (70 nm) sections were cut with an ultramicrotome (ULTRACUT UCT; Leica, Wetzlar, Germany), collected onto copper grids, stained with 2% uranyl acetate at room temperature for 15 min, and then rinsed with distilled water. The sections were then stained with Lead stain solution (Sigma-Aldrich) at room temperature for 3 min. The sections were observed under a transmission electron microscope (JEM-1200Ex; JEOL Ltd., Tokyo, Japan) at an acceleration voltage of 80 kV. Digital images (2048×2048 pixels) were taken with a charge-coupled device camera (VELETA; Olympus Soft Imaging Solutions GmbH, Tokyo, Japan).

Take `CCCCCC(=O)c1c(O)cc(OC)c(Cl)c1O` [DIF-3, 1-(3-chloro-2,6-dihydroxy-4-methoxyphenyl)hexan-1-one]: the “Effect on cell growth (relative cell number)” value with HeLa cells [1] (20 µM) was “significantly suppressed”. In addition, the half-inhibitory concentration (IC50) with HeLa cells [1] was determined as 14.5 µM; in the assay with LM8 cells, 15.5 µM.

As to `CCCCCC(=O)c1c(O)cc(OCCCCNC(=O)CCC2=[N+]3C(=Cc4c(C)cc(C)n4[B-]3(F)F)C=C2)c(Cl)c1O` [BODIPY-DIF-3], the “Effect on cell growth (relative cell number)” value with HeLa cells [1] (5–20 µM (Bu-BODIPY up to 20 µM)) is recorded as “suppressed in a dose-dependent manner”. Besides, the midpoint of inhibition in the assay on HeLa cells [1], the IC50, lay at 13.2 µM. In the assay on HeLa cells [2], the “Lipid bodies in treated cells” value is “many lipid bodies were observed”, the “Number of swollen mitochondria” value is listed as “increase in the number of swollen mitochondria” and the “Total number of mitochondria” value is given as “tended to cause a decrease”. In the assay on LM8 cells, the “Effect on cell growth in LM8 cells” value is reported as “dose-dependently suppressed cell growth” and 12.2 µM corresponded to half-maximal inhibition (IC50).

Turning to `N#CC(C#N)=NNc1cccc(Cl)c1` [CCCP, carbonyl cyanide m-chlorophenylhydrazone, reference compound], the “Effect on cell growth (relative cell number)” value with HeLa cells [1] (CCCP 10 µM, azide 0.01%) is “significantly suppressed”. In addition, the figures for the IC50 in the assay on HeLa cells [1] and in the assay with LM8 cells were 5.2 µM and 6.8 µM, respectively. In addition, the “Effect on cell growth in LM8 cells” value with LM8 cells is “dose-dependently suppressed cell growth”.

With `CCCCCC(=O)c1c(O)cc(OCCCC)c(Cl)c1O` [Bu-DIF-3, 1-(3-chloro-2,6-dihydroxy-4-butoxyphenyl)hexan-1-one], the “Effect on cell growth (relative cell number)” value with HeLa cells [1] (20 µM) is “significantly suppressed”. Also, half-maximal inhibition in the assay on HeLa cells [1] (IC50) required 3.2 µM. In addition, in the assay on HeLa cells [2], the “Lipid bodies in treated cells” value is listed as “many lipid bodies were observed”, the “Number of swollen mitochondria” value is “increase in the number of swollen mitochondria” and the “Total number of mitochondria” value was “tended to cause a decrease”. In the assay with LM8 cells, this compound yielded an IC50 of 2 µM.
